Assay results as given in US20220195059A1, “Rank Pathway Inhibitors in Combination with CDK Inhibitors” (INSTITUTO DE MEDICINA MOLECULAR JOÃO LOBO ANTUNES, priority 2019, published 2022).

Assays:
[1] = tested on: cyclin D1, CDK4, CDK6, Cyclin E and CDK2 expression in RANK OE (MCF-7 OE) cells; experiment: Western blot of proteins involved in cyclin/CDKs complexes; format: cell-based, human; details: 0, 24 or 72 hours
Description: Membranes were blocked for 1 h at room temperature (RT) in 5% Non-Fat Dry Milk (NFDM) in PBS-0.1% Tween (PBST) for β-actin; or in 5% bovine serum albumin (BSA) (Santa Cruz) for other antibodies. […] Proteins were detected using a Novex® ECL HRP chemiluminescent substrate reagent kit (Invitrogen) according to the manufacturer's instructions, and x-ray films (Fujifilm) developed in a Curix 60 processor (AGFA), or the Amersham™ Imager 680 (GE Healthcare Life Sciences). Normalized protein expression was calculated using FIJI software and band densitometry analysis.
Briefly, expression of cyclin D1, CDK4, CDK6, Cyclin E and CDK2 were analyzed by Western blotting cell lysates of RANK OE (MDF-7 OE) cells exposed to palbociclib for 0 hours, 24 hours or 72 hours, and compared to the corresponding expression levels in the parental counterpart cells (expressing low levels of RANK; MCF-7 cells). […]

[2] = tested on: RANK OE cells (MCF-7^OE, T47D^OE) and parental MCF-7, T47D cells; experiment: Alamar blue viability assay, RANK OE luminal breast cancer cells vs parental counterparts; format: cell-based, human; details: RANK OE cells vs parental counterparts; drug alone; 7 days
Description: Cells were seeded in 96 well-plates (2-5×10^4 cells/mL), with or without paclitaxel (Y0000698, Sigma), doxorubicin hydrochloride (D2975000, Sigma), palbociclib (PD 0332991 isethionate, PZ0199, Sigma), ribociclib (LEE011 succinate, SC-488174, Santa Cruz), abemaciclib mesylate (LY2835219, S7158, Selleckchem), fulvestrant (S1191, Selleckchem), everolimus (#73122, StemCell Technologies), full length human OPG (SRP3132, Sigma), and OPG-Fc (Amgen). Medium was replaced every 2 days. After 7 days, 1:10 Alamar blue (Invitrogen) was added to each well and fluorescence was measured 2 hours after incubation (excitation 560 nm; emission 590 nm) in an Infinite M200 microplate reader (Tecan).
In particular, RANK OE cells were tested for responsiveness to hormone therapy. Briefly, RANK OE cells were seeded in multi-well plates and exposed to fulvestrant for 7 days.
In this assay, however, RANK OE cells were exposed to a CDK 4/6 inhibitor alone or in combination with an inhibitor of the RANK pathway, in order to test the effect of blocking the RANK pathway in this context. Briefly, RANK OE cells were seeded in multi-well plates and exposed to palbociclib, ribociclib or abemaciclib alone or in combination with OPG-Fc for 7 days. Osteoprotegrin (OPG) is the physiologic soluble decoy receptor for RANK ligand (RANKL), and OPG-Fc is a fusion protein comprising only the four cysteine-rich domains of OPG (D1 to D4) fused with the Fc domain of an IgG1 antibody.
In this study, the CDK4/6 inhibitors palbociclib and ribociclib were exposed to RANK OE cells in combination with fulvestrant or everolimus. This combination therapy was then tested alone or in combination with OPG, an inhibitor of the RANK pathway. In this assay, the full-length OPG protein was used, in contrast to the previous example utilizing OPG-Fc.
To address this question, cell growth in the presence or absence of a CDK4 inhibitor was quantified. Briefly, cells were seeded in 96-well plates and exposed to two different drugs, CDK4 inhibitors, 3-ATA (FIG. 20A) or Cdk4 inhibitor Ill (FIG. 20B) for seven days. Medium was replaced every two days, and viability was assessed by Alamar blue assay. FIG. 20A provides the cell growth quantification in the presence of the CDK4 inhibitor 3-ATA and FIG. 20B provides the cell growth quantification in the presence of another CDK4 inhibitor, Cdk4 Inhibitor Ill. The results are the mean of at least three independent assays, with 4 replicates per assay, and presented as the mean±SEM. p-value was calculated using 2-way ANOVA, *p<0.05, **p<0.01, ***p<0.001.
To answer this question, cell growth in the presence of the pan-CDK inhibitor seliciclib (also known as roscovitine or CYC202) was analyzed. Briefly, cells were seeded in 96-well plates and exposed to different drugs for seven days. Medium was replaced every two days, and viability was assessed by Alamar blue assay.
Cells were seeded in 96 well-plates (2-5×10^4 cells/mL), with or without palbociclib (PD 0332991 isethionate, PZ0199, Sigma), ribociclib (LEE011 succinate, SC-488174, Santa Cruz), abemaciclib mesylate (LY2835219, S7158, Selleckchem), 3-ATA (sc-202414, Santa Cruz), Cdk4 inhibitor Ill (sc-202988, Santa Cruz), seliciclib (S1153, Selleckchem), and OPG-Fc (PL-33324, Amgen). Medium was replaced every 2 days. After 7 days, 1:10 Alamar blue (Invitrogen) was added to each well and fluorescence was measured 2 hours after incubation (excitation 560 nm; emission 590 nm) in an Infinite M200 microplate reader (Tecan).

With `CC(=O)c1c(C)c2cnc(Nc3ccc(N4CCNCC4)cn3)nc2n(C2CCCC2)c1=O` [palbociclib] the “CyclinD1, CDK4 and CDK2 expression upon exposure to CDK4/6 inhibitor” value [1] was “increased” and the “sensitivity of RANK OE cells to the drug (cell viability)” value [2] was “decreased sensitivity”.
